Source: ChEMBL document CHEMBL4130634, “Discovery of Reversible DNA Methyltransferase and Lysine Methyltransferase G9a Inhibitors with Antitumoral in Vivo Efficacy” (J Med Chem, 2018)

Tests used:
OCI-Ly10 = assay: Growth inhibition of human OCI-LY10 cells after 48 hrs by MTS assay; assay type: functional; conditions: OCI-Ly10, 48 h
[1] = Half life in human liver microsomes at 1 uM preincubated for 10 mins followed by NADP addition after 20 mins by LC-MS/MS analysis; assay type: ADME, microsome; conditions: liver microsomes
[2] = Metabolic stability in mouse liver microsomes assessed as parent compound remaining at 1 uM preincubated for 10 mins followed by NADP addition after 20 mins by LC-MS/MS analysis; assay type: ADME, microsome; conditions: read-out: Stability
CYP2D6 = CYP2D6 (Homo sapiens, UniProt P10635); assay: Inhibition of CYP2D6 in human liver microsomes at 10 uM after 10 mins in presence of NADPH by LC-MS/MS analysis relative to control; assay type: ADME
CYP1A2 = biological target: T1, CYP1A2 (Homo sapiens, UniProt P05177); assay: Inhibition of CYP1A2 in human liver microsomes at 10 uM after 10 mins in presence of NADPH by LC-MS/MS analysis relative to control; assay type: ADME
T1 sequence (P05177 whole entry): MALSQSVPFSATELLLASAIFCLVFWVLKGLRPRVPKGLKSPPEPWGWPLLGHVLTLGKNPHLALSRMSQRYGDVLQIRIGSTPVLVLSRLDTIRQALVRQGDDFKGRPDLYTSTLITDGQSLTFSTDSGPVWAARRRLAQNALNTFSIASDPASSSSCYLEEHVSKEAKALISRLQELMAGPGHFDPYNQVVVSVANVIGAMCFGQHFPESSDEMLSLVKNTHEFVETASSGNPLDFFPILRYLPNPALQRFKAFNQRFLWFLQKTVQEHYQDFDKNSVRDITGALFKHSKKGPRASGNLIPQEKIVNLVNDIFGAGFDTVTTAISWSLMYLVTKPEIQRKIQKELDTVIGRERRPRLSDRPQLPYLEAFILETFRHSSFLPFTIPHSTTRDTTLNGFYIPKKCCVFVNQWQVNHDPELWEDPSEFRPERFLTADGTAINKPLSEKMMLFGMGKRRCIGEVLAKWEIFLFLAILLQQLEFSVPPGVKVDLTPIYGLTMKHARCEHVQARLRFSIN

CYP3A4 = CYP3A4 (Homo sapiens, UniProt P08684); assay: Inhibition of CYP3A4 in human liver microsomes at 10 uM after 10 mins in presence of NADPH by LC-MS/MS analysis relative to control; assay type: ADME
[3] = Half life in mouse liver microsomes at 1 uM preincubated for 10 mins followed by NADP addition after 20 mins by LC-MS/MS analysis; assay type: ADME, microsome
CYP2C19 = CYP2C19 (Homo sapiens, UniProt P33261); assay: Inhibition of CYP2C19 in human liver microsomes at 10 uM after 10 mins in presence of NADPH by LC-MS/MS analysis relative to control; assay type: ADME
[4] = Metabolic stability in human liver microsomes assessed as parent compound remaining at 1 uM preincubated for 10 mins followed by NADP addition after 20 mins by LC-MS/MS analysis; assay type: ADME, microsome; conditions: liver microsomes, read-out: Stability
OCI-Ly3 = assay: Growth inhibition of human OCI-LY3 cells after 48 hrs by MTS assay; assay type: functional; conditions: OCI-Ly3, 48 h
[5] = biological target: T2, Histone-lysine N-methyltransferase EHMT1 (Homo sapiens, UniProt Q9H9B1); assay: Inhibition of recombinant human GLP using histone H3 peptide as substrate after 120 mins in presence of [3H]SAM by radiometric assay
T2 sequence (Q9H9B1 whole entry): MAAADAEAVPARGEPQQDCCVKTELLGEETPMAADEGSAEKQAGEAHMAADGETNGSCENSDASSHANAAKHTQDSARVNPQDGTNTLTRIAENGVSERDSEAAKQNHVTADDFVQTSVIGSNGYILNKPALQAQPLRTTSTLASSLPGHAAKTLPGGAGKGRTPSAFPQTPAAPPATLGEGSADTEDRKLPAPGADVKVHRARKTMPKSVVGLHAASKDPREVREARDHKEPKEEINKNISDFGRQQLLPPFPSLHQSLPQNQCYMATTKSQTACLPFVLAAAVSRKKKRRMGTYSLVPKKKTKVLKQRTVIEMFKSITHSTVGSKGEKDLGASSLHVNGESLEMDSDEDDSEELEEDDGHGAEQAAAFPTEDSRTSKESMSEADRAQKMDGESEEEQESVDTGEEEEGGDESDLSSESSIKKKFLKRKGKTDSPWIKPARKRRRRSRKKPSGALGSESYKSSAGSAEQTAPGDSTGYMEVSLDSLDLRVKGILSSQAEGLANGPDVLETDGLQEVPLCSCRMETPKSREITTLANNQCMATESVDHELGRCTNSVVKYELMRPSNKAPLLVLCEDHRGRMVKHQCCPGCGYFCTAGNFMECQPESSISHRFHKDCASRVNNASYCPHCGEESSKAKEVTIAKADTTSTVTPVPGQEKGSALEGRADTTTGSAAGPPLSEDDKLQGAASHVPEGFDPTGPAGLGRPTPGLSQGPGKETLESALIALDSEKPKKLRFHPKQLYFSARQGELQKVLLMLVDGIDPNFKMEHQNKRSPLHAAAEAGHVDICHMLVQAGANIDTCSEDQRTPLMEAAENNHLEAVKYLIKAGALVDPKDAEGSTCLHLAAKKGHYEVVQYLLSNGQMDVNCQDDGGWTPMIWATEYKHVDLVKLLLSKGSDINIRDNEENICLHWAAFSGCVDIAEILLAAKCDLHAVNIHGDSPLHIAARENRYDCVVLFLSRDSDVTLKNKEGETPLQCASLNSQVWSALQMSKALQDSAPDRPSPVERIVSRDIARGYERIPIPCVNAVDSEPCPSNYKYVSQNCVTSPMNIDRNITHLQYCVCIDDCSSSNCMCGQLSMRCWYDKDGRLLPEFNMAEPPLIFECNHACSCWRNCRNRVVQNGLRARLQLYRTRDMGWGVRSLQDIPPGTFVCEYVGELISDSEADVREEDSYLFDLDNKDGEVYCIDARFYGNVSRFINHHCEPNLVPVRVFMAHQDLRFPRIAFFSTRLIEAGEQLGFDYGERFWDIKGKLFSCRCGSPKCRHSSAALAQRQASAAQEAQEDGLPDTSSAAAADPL

Sequence of CYP2D6 (P10635 whole entry): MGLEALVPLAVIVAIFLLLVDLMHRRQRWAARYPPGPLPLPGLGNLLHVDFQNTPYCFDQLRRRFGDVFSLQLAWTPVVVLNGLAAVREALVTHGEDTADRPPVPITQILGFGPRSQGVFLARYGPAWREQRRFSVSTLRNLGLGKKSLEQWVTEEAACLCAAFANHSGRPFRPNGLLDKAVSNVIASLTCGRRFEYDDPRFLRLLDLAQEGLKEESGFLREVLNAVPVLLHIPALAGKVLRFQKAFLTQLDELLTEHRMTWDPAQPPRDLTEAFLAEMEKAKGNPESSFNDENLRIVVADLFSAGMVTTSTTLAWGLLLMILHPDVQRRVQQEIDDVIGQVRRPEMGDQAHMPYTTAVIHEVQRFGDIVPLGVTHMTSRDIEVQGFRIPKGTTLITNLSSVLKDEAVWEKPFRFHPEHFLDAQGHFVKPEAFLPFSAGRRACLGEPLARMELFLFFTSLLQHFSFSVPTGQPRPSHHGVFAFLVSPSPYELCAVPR
Sequence of CYP2C19 (P33261 whole entry): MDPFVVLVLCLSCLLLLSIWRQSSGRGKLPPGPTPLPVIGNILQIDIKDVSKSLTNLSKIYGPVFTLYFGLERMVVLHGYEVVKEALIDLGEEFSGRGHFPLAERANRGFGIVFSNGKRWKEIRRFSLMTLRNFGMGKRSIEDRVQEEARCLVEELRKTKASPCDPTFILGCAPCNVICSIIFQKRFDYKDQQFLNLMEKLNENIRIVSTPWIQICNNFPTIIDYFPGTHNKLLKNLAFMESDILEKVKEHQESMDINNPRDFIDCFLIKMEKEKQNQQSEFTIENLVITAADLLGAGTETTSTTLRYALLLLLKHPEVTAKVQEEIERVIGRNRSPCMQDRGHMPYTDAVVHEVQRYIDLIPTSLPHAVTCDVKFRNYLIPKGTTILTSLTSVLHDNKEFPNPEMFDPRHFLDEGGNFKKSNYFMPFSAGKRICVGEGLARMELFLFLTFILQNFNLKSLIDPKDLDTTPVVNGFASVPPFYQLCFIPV
Sequence of CYP3A4 (P08684 whole entry): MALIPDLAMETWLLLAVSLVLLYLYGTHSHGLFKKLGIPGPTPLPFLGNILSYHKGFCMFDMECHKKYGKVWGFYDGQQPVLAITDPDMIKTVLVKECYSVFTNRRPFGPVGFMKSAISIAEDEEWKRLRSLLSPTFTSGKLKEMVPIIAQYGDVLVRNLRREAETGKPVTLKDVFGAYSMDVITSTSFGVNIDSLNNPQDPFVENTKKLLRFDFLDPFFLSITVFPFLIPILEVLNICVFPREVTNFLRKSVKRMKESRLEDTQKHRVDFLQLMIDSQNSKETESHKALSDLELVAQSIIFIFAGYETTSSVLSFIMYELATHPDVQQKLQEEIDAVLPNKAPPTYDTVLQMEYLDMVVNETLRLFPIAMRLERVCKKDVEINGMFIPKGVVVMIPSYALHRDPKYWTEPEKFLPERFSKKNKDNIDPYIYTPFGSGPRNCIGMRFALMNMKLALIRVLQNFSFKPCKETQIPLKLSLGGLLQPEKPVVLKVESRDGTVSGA

With `COc1cc2c(NC3CCN(C4CC4)CC3)cc(-c3ccc(C)o3)nc2cc1OCCCN1CCCC1` the GI50 (OCI-Ly10) was 94 nM, the half-life at 1 µM [1] was > 144 min and the remaining at 20 min, 1 µM [2] was 15%. It also gave an inhibition at 10 min, 10 µM (CYP2D6) of 27.6%, an inhibition at 10 min, 10 µM (CYP1A2) of 28.6% and an inhibition at 10 min, 10 µM (CYP3A4) of 4.6%. The half-life at 1 µM [3] was 6 min, the inhibition at 10 min, 10 µM (CYP2C19) was 4% and the remaining at 20 min, 1 µM [4] was 97%. The GI50 (OCI-Ly3) was 187 nM and the IC50 [5] was > 20000 nM.
